Source: patent publication US20070197643A1, “USE OF (Z)-2-CYANO-3-HYDROXY-BUT-2-ENOIC ACID-(4'-TRIFLUOROMETHYLPHENYL)-AMIDE FOR TREATING INFLAMMATORY BOWEL DISEASE” (AVENTIS PHARMACEUTICALS INC., priority 2004, published 2007)

Assays:
[1] = amount entering the intestinal lumen after administration; assay type: in vivo; conditions: following administration of teriflunomide
[2] = molecular target: dihydrooate dehydrogenase (Homo sapiens, UniProt Q02127); conditions: enzyme essential for the synthesis of pyrimidines; cited from earlier work
[3] = system: immune cells and cell lines; conditions: wide variety of immune cells and cell lines; cited from earlier work
inflammation = conditions: animal models of inflammation; cited from earlier work
multiple sclerosis = conditions: in vivo; cited from earlier work
Crohn's disease = conditions: small number of patients with azathioprine intolerance; cited from earlier work

Sequence of dihydrooate dehydrogenase (Q02127 whole entry): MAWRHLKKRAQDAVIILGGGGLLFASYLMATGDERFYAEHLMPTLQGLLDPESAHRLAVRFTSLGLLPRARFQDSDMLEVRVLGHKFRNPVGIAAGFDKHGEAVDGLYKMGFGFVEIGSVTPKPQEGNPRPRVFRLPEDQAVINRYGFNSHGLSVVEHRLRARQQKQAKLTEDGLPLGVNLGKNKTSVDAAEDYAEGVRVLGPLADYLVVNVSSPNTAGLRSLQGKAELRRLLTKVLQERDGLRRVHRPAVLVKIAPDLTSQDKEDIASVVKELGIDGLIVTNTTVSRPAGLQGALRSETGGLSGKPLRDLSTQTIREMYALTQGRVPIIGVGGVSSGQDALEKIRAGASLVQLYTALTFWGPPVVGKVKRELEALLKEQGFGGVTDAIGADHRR

amount of teriflunomide entering the intestinal lumen [1]	SMILES	inhibition of dihydrooate dehydrogenase [2]	antiproliferative effects [3]	anti-inflammatory activity (inflammation)	efficacy in preclinical models of multiple sclerosis (multiple sclerosis)	treatment of Crohn's disease (Crohn's disease)
high amounts	C/C(O)=C(\C#N)C(=O)Nc1ccc(C(F)(F)F)cc1 [Teriflunomide, (Z)-2-cyano-3-hydroxy-but-2-enoic acid-(4′-trifluoromethylphenyl)-amide]	inhibits	antiproliferative effects	anti-inflammatory activity	demonstrated efficacy	
	Cc1oncc1C(=O)Nc1ccc(C(F)(F)F)cc1 [leflunomide, 5-methylisoxazole-4-carboxylic-(4-trifluoromethyl)-anilide]					successful use
